Test systems include A498; ACHN; HT-29; Hs-578T; K562; M14; MCF7; OVCAR-3; OVCAR-5; OVCAR-8; PC-3; SF-295; SF-539; SK-MEL-28; SNB-19; SR; UACC-257; UO-31; HL-60.
Common to all, as to test: NCI tumour cell line growth inhibition, 48 h

Each structure is given as a SMILES string.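 All cell lines were grown in 96-well plates and treated with compound for 48 hours. GI50 is the concentration that inhibits growth by half.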 Active and inactive are the calls of the source. Cut-off read from the data, not from the text of the source: active = GI50 up to about 1.1 µM and inactive = higher.

On to `CC(=O)Oc1cc2oc(=O)cc(C)c2cc1OC(C)=O`, for which the GI50 is 44.6 µM (inactive) with A498; 42.2 µM (inactive) with ACHN; 39.6 µM (inactive) with HT-29; 68.4 µM (inactive) in the experiment with Hs-578T; 55.7 µM (inactive) with K562; 50.6 µM (inactive) in the experiment with M14. Also, the GI50 in the experiment with MCF7 was 38.8 µM (inactive); in the experiment on OVCAR-3 it was 33.1 µM (inactive); in the experiment with OVCAR-5 it was > 100 µM (inactive); with OVCAR-8, 32.2 µM (inactive); with PC-3 it was 84.9 µM (inactive); in the experiment with SF-295, 41.8 µM (inactive). For the same compound, the GI50 was 31.3 µM (inactive) in the experiment on SF-539; 53.1 µM (inactive) in the experiment on SK-MEL-28; > 100 µM (inactive) in the experiment with SNB-19; 39.6 µM (inactive) in the experiment on SR; 48.9 µM (inactive) in the experiment on UACC-257; 24.6 µM (inactive) in the experiment on UO-31.

`COC(C(=O)NN)c1ccccc1` (stereo unspecified): the GI50 in the experiment with ACHN, in the experiment on HT-29, in the experiment on Hs-578T, in the experiment on K562, with M14 and with MCF7 was > 100 µM (inactive) each time. Further, the GI50 with OVCAR-3, in the experiment on OVCAR-5, with OVCAR-8, in the experiment on PC-3, with SF-295 and in the experiment with SF-539 was > 100 µM (inactive) throughout. In addition, the GI50 with SK-MEL-28, in the experiment with SNB-19, in the experiment with SR, in the experiment on UACC-257 and with UO-31 was > 100 µM (inactive) in each case.

Take `Cc1nnc2n(c1=O)CCN2C`: the GI50 in the experiment on ACHN, in the experiment with HL-60, in the experiment with HT-29, in the experiment on Hs-578T, in the experiment with K562 and in the experiment on M14 was > 100 µM (inactive) in each case. For the same compound, the GI50 with MCF7, in the experiment with OVCAR-3, in the experiment on OVCAR-5, with OVCAR-8, in the experiment with PC-3 and with SF-295 was > 100 µM (inactive) in each case. Also, the GI50 in the experiment with SF-539, in the experiment on SK-MEL-28, with SNB-19, with SR and in the experiment on UO-31 was > 100 µM (inactive) each time.

On to `O=[N+]([O-])c1cn[n+]([O-])c2ccccc12`, for which the GI50 was 23.1 µM (inactive) in the experiment on A498; 1.13 µM (inactive) in the experiment on ACHN; 1.17 µM (inactive) in the experiment with HL-60; 4.65 µM (inactive) in the experiment on HT-29; 13.8 µM (inactive) in the experiment on Hs-578T; 2.87 µM (inactive) in the experiment with M14. Also, the GI50 with MCF7 is 10.7 µM (inactive); in the experiment with OVCAR-3, 2.55 µM (inactive); with OVCAR-5, 12.4 µM (inactive); with OVCAR-8, 2.18 µM (inactive); with PC-3, 8.28 µM (inactive); in the experiment on SF-295 it was 4.75 µM (inactive). For the same compound, the GI50 is 10.4 µM (inactive) in the experiment on SF-539; 10.4 µM (inactive) in the experiment on SK-MEL-28; 11.5 µM (inactive) with SNB-19; 0.403 µM (active) in the experiment with SR; 11.4 µM (inactive) with UACC-257.

As to `CCN(CC)CCCn1c(=O)c2cccnc2n2c3c(=O)n(C)c(=O)n(C)c3nc12`, the GI50 with ACHN, in the experiment with HL-60, with HT-29, in the experiment on Hs-578T, in the experiment on K562 and in the experiment on M14 was > 100 µM (inactive) throughout. Also, the GI50 in the experiment with MCF7, in the experiment with OVCAR-3, in the experiment on OVCAR-5, with OVCAR-8, with PC-3 and in the experiment with SF-295 was > 100 µM (inactive) throughout. For the same compound, the GI50 with SF-539, in the experiment on SK-MEL-28, in the experiment with SNB-19, with SR, in the experiment on UACC-257 and in the experiment on UO-31 was > 100 µM (inactive) throughout.

In the case of `CN(C(=O)Cc1ccc(Cl)c(Cl)c1)[C@H]1CCCC[C@@H]1[N+]1(C)CCCC1`, the GI50 in the experiment on A498, in the experiment with ACHN, in the experiment on HT-29, in the experiment on Hs-578T, with K562 and with M14 was > 100 µM (inactive) each time. Also, the GI50 in the experiment on MCF7, with OVCAR-3, in the experiment on OVCAR-5, with OVCAR-8, with PC-3 and with SF-295 was > 100 µM (inactive) each time. Besides, the GI50 in the experiment on SF-539, in the experiment with SK-MEL-28, in the experiment with SNB-19, in the experiment on SR, in the experiment on UACC-257 and with UO-31 was > 100 µM (inactive) each time.

Regarding `NC1=NC(NCC2(CO)CCC2)=CC(OCC2(CO)CCC2)N1` (stereo unspecified), the GI50 was > 100 µM (inactive) in the experiment on A498; 78.2 µM (inactive) in the experiment with HL-60; > 100 µM (inactive) in the experiment with HT-29; > 100 µM (inactive) in the experiment on Hs-578T; 44.8 µM (inactive) with K562; > 100 µM (inactive) in the experiment on M14. Moreover, the GI50 in the experiment on MCF7, with OVCAR-3, with OVCAR-5, in the experiment on OVCAR-8, with PC-3 and with SF-295 was > 100 µM (inactive) throughout. The GI50 with SK-MEL-28 is > 100 µM (inactive); in the experiment on SNB-19, > 100 µM (inactive); in the experiment on SR, 82.8 µM (inactive); with UACC-257 it was > 100 µM (inactive); in the experiment on UO-31 it was > 100 µM (inactive).

`c1ccc(/N=C(/Nc2ccccc2)N2CCCC2)cc1`: the GI50 in the experiment with ACHN, in the experiment with HL-60, in the experiment with HT-29, with Hs-578T, with K562 and in the experiment with M14 was > 100 µM (inactive) in each case. Further, the GI50 with MCF7 was > 100 µM (inactive); in the experiment on OVCAR-3 it was > 100 µM (inactive); in the experiment with OVCAR-5, > 100 µM (inactive); in the experiment on OVCAR-8 it was > 100 µM (inactive); with PC-3, 79.1 µM (inactive); in the experiment with SF-295, > 100 µM (inactive). The GI50 in the experiment on SK-MEL-28, in the experiment on SNB-19, with SR, in the experiment on UACC-257 and in the experiment on UO-31 was > 100 µM (inactive) each time.

`CCCCC(=O)N/S(=N/C(=O)c1ccccc1)C(Cl)(Cl)Cl` (stereo unspecified): the GI50 was > 100 µM (inactive) with ACHN; 79.1 µM (inactive) in the experiment with HL-60; > 100 µM (inactive) in the experiment on HT-29; > 100 µM (inactive) in the experiment on Hs-578T; > 100 µM (inactive) with K562; > 100 µM (inactive) in the experiment with M14. Besides, the GI50 in the experiment with MCF7, in the experiment on OVCAR-3, in the experiment with OVCAR-5, in the experiment on OVCAR-8, with PC-3 and with SF-295 was > 100 µM (inactive) each time. Besides, the GI50 in the experiment with SF-539, with SK-MEL-28, in the experiment with SNB-19, with SR, with UACC-257 and in the experiment with UO-31 was > 100 µM (inactive) each time.

In the case of `CCC(C)[C@@H](NCc1ccccc1)[C@H](OCc1ccccc1)[C@@H]1COC(C)(C)O1` (stereo partly specified), the GI50 was 20.9 µM (inactive) in the experiment with ACHN; 10.7 µM (inactive) with HT-29; 21.1 µM (inactive) in the experiment on Hs-578T; 20.3 µM (inactive) in the experiment with K562; 29.2 µM (inactive) in the experiment on M14; 21.2 µM (inactive) in the experiment with MCF7. Also, the GI50 with OVCAR-3 is 28.7 µM (inactive); with OVCAR-5 it was 26.1 µM (inactive); in the experiment with OVCAR-8 it was 20.5 µM (inactive); in the experiment on PC-3, 28.6 µM (inactive); in the experiment on SF-295, 21 µM (inactive); in the experiment with SK-MEL-28, 24.8 µM (inactive). Besides, the GI50 was 17 µM (inactive) in the experiment with SNB-19, 26.1 µM (inactive) in the experiment on SR, 18.7 µM (inactive) with UACC-257 and 17.3 µM (inactive) with UO-31.

On to `Cc1cccc(CNNC(=O)c2cc[n+]([BH2-]C#N)cc2)c1`, for which the GI50 is 24.7 µM (inactive) in the experiment with A498; 42.6 µM (inactive) in the experiment with ACHN; 22.5 µM (inactive) in the experiment on HL-60; 29.3 µM (inactive) with HT-29; 21.6 µM (inactive) in the experiment with Hs-578T; 26.9 µM (inactive) with K562. Moreover, the GI50 was 37.9 µM (inactive) in the experiment on M14; 36.5 µM (inactive) in the experiment on MCF7; 32.1 µM (inactive) in the experiment on OVCAR-3; 37.5 µM (inactive) in the experiment with OVCAR-5; 24.6 µM (inactive) in the experiment on OVCAR-8; 31.6 µM (inactive) with PC-3. Besides, the GI50 in the experiment with SF-295 is 36.1 µM (inactive); with SK-MEL-28, 6.67 µM (inactive); with SNB-19, 48.2 µM (inactive); in the experiment on SR it was 32.3 µM (inactive); in the experiment on UACC-257, 37.6 µM (inactive); in the experiment on UO-31 it was 48.1 µM (inactive).

For the origin of these results see ChEMBL document CHEMBL1201862, “PubChem BioAssay data set” (2004).
